In test [1] the target is Neuronal acetylcholine receptor; alpha4/beta2 (Rattus norvegicus, UniProt P09483+P12390). In words: Displacement of [3H]cytisine from rat alpha4beta2 nAChR in rat brain cell membrane. Format: cell membranes. (In general: Loss of bound radioactivity is the signal in a displacement assay; it reports binding, not function.)
In test [2] the target is Neuronal acetylcholine receptor subunit alpha-7 (Rattus norvegicus, UniProt Q05941). In words: Displacement of [125I]alpha-Bungarotoxin from alpha7 nAchR in rat brain cell membrane. Type of test: cell membranes.

pKi: −log10 of the molar value.

Neuronal acetylcholine receptor subunit alpha-7, sequence (Q05941 whole entry): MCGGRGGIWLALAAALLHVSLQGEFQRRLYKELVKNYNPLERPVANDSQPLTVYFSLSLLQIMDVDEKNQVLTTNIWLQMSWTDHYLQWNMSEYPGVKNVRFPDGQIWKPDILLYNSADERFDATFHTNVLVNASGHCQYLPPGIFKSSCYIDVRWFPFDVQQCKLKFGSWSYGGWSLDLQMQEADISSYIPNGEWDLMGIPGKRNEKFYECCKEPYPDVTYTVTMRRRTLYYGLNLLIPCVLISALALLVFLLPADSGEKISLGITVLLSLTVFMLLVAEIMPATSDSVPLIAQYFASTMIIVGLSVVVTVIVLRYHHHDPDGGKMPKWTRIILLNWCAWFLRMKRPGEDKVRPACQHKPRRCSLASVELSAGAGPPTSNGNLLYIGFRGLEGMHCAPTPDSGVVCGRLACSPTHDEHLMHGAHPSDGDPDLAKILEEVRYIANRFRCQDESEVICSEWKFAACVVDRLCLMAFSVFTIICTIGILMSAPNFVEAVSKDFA
Neuronal acetylcholine receptor; alpha4/beta2, sequence (P09483 whole entry): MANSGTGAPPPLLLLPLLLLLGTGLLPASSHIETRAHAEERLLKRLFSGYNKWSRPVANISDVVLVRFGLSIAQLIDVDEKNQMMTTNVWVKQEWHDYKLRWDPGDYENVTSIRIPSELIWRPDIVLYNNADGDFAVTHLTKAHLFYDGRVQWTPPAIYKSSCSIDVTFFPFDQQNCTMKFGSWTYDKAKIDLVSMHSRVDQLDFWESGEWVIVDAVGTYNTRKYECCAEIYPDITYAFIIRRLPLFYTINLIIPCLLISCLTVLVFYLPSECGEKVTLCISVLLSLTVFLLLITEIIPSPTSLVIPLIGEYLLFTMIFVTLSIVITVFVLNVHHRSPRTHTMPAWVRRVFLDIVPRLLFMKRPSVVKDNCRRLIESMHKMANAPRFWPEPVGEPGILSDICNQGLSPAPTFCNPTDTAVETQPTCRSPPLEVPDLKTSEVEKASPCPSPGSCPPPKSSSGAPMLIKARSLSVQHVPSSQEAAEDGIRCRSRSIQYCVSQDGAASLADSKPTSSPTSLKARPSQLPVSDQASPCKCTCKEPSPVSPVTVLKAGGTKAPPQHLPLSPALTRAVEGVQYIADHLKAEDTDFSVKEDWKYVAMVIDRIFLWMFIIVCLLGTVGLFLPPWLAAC
Neuronal acetylcholine receptor; alpha4/beta2, sequence (P12390 whole entry): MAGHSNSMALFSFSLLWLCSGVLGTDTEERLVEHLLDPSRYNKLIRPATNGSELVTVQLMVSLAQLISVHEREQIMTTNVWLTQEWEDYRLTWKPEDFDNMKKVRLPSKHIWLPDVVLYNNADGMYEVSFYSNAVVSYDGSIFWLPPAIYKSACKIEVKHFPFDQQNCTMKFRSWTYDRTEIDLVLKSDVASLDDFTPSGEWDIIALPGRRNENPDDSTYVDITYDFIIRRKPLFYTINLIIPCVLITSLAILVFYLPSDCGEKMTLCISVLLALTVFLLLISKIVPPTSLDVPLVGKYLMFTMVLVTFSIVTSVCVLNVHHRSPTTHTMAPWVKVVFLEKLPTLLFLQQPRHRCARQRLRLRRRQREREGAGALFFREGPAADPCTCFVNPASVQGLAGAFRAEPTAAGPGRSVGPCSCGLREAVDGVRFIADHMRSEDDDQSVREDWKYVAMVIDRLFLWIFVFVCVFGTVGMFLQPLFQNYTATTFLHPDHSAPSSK

Consider `O=c1c(F)ccc2n1C[C@@H]1CNC[C@H]2C1`, for which, in test [1], the pKi was 8.19.
Take `O=c1c(C(F)(F)F)ccc2n1C[C@@H]1CNC[C@H]2C1`: the pKi in test [1] is 9.66; in test [2] it was 6.00.
For `Cc1ccc2n(c1=O)C[C@@H]1CNC[C@H]2C1` the same measures were 9.62 and 5.70.
For `O=c1cccc2n1C[C@@H]1C[C@@H]2CN(I)C1` the same measures were 9.78 and 5.70.
The matching figures for `O=c1c(Br)ccc2n1C[C@@H]1CNC[C@H]2C1`: 9.94 and 6.40.
Consider `O=c1cccc2n1C[C@@H]1C[C@@H]2CN(Br)C1`, for which the pKi in test [1] is 9.68; in test [2] it was 6.95.
Regarding `O=c1cccc2n1C[C@@H]1CNC[C@H]2C1` [CYTISINICLINE], the negative logarithm of the Ki (pKi) in test [1] is 8.97; in test [2] it was 6.00.

By pKi is commonly meant the Ki on a negative log10 scale, so that one unit is a factor of ten. Low values mean a high Ki, high ones a low Ki.

Values taken from ChEMBL document CHEMBL1268923, “Identification of 9-fluoro substituted (-)-cytisine derivatives as ligands with high affinity for nicotinic receptors” (Bioorg Med Chem Lett, 2010).
